Results taken from PubChem BioAssay AID270 (DTP/NCI, 2004).
“And” between values parts separate entries of the source, which are not always exact repeats. Equal values may be shown once. Results filed as inconclusive are left out.

System: BDF1 mice, s.c. Lewis lung carcinoma, T/C %
Test: NCI In Vivo Anticancer Drug Screen. Data for tumor model Lewis Lung Carcinoma (subcutaneous) in B6D2F1 (BDF1) mice
Outline: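 First, mice carry a transplantable tumor. Next, groups receive either compound or vehicle. Finally, survival or tumor dimensions in the dosed animals are divided by the corresponding control figure.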

C[C@]12C=CC(=O)C=C1CC[C@@H]1[C@@H]2[C@@H](O)C[C@@]2(C)[C@H]1CC[C@]2(O)C(=O)COC(=O)C1CCCC1
T/C (endpoint: mean tumor weight, dose: 9.0 mg/kg/injection, schedule: Q01DX011 (sc), vehicle: steriod suspending solution, higher = larger tumour): 68 % of control | T/C (endpoint: mean tumor weight, dose: 13.0 mg/kg/injection, schedule: Q01DX011 (sc), vehicle: steriod suspending solution, higher = larger tumour): 51 % of control | T/C (endpoint: mean tumor weight, dose: 20.0 mg/kg/injection, schedule: Q01DX011 (sc), vehicle: steriod suspending solution, higher = larger tumour): 77 % of control | T/C (endpoint: mean tumor weight, dose: 30.0 mg/kg/injection, schedule: Q01DX011 (sc), vehicle: steriod suspending solution, higher = larger tumour): 52 % of control

CC[C@]1(O)C[C@H]2CN(CCc3c([nH]c4ccccc34)[C@@](C(=O)OC)(c3cc4c(cc3OC)N(C=O)[C@H]3[C@@](O)(C(=O)OC)[C@H](OC(C)=O)[C@]5(CC)C=CCN6CC[C@]43[C@@H]65)C2)C1
T/C (endpoint: mean survival time, dose: 0.5 mg/kg/injection, schedule: Q08DX002 (ip), vehicle: saline, higher = longer survival): 101 % of control | T/C (endpoint: mean survival time, dose: 1.0 mg/kg/injection, schedule: Q08DX002 (ip), vehicle: saline, higher = longer survival): 104 % of control | T/C (endpoint: mean survival time, dose: 1.5 mg/kg/injection, schedule: Q08DX002 (ip), vehicle: saline, higher = longer survival): 106 % of control | T/C (endpoint: mean tumor weight, dose: 0.05 mg/kg/injection, schedule: Q01DX011 (ip), vehicle: saline, higher = larger tumour): 81 % of control | T/C (endpoint: mean tumor weight, dose: 0.1 mg/kg/injection, schedule: Q01DX011 (ip), vehicle: saline, higher = larger tumour): 83 % of control | T/C (endpoint: mean tumor weight, dose: 0.15 mg/kg/injection, schedule: Q01DX011 (ip), vehicle: saline, higher = larger tumour): 87 % of control and 101 % of control | T/C (endpoint: mean tumor weight, dose: 0.22 mg/kg/injection, schedule: Q01DX011 (ip), vehicle: saline, higher = larger tumour): 88 % of control | T/C (endpoint: mean tumor weight, dose: 0.5 mg/kg/injection, schedule: Q01DX011 (ip), vehicle: saline, higher = larger tumour): 59 % of control | T/C (endpoint: mean tumor weight, dose: 62.5 micrograms/kg/injection, schedule: Q01DX011 (ip), vehicle: saline, higher = larger tumour): 59 % of control | T/C (endpoint: mean tumor weight, dose: 125.0 micrograms/kg/injection, schedule: Q01DX011 (ip), vehicle: saline, higher = larger tumour): 80 % of control | T/C (endpoint: mean tumor weight, dose: 250.0 micrograms/kg/injection, schedule: Q01DX011 (ip), vehicle: saline, higher = larger tumour): 59 % of control | T/C (endpoint: median survival time, dose: 0.12 mg/kg/injection, schedule: Q01DX009 (ip), vehicle: saline, higher = longer survival): 116 % of control | T/C (endpoint: median survival time, dose: 0.12 mg/kg/injection, schedule: Q04DX003 (ip), vehicle: saline, higher = longer survival): 104 % of control | T/C (endpoint: median survival time, dose: 0.13 mg/kg/injection, schedule: Q01DX009 (ip), vehicle: saline, higher = longer survival): 100 % of control | T/C (endpoint: median survival time, dose: 0.25 mg/kg/injection, schedule: Q01DX009 (ip), vehicle: saline, higher = longer survival): 108 % of control | T/C (endpoint: median survival time, dose: 0.25 mg/kg/injection, schedule: Q04DX003 (ip), vehicle: saline, higher = longer survival): 108 % of control | T/C (endpoint: median survival time, dose: 0.5 mg/kg/injection, schedule: Q01DX009 (ip), vehicle: saline, higher = longer survival): 108 % of control | T/C (endpoint: median survival time, dose: 0.5 mg/kg/injection, schedule: Q04DX003 (ip), vehicle: saline, higher = longer survival): 88 % of control | T/C (endpoint: median survival time, dose: 0.5 mg/kg/injection, schedule: Q08DX002 (ip), vehicle: saline, higher = longer survival): 104 % of control | T/C (endpoint: median survival time, dose: 1.0 mg/kg/injection, schedule: Q04DX003 (ip), vehicle: saline, higher = longer survival): 93 % of control | T/C (endpoint: median survival time, dose: 1.0 mg/kg/injection, schedule: Q08DX002 (ip), vehicle: saline, higher = longer survival): 104 % of control | T/C (endpoint: median survival time, dose: 1.5 mg/kg/injection, schedule: Q08DX002 (ip), vehicle: saline, higher = longer survival): 108 % of control | T/C (endpoint: median survival time, dose: 2.0 mg/kg/injection, schedule: Q04DX003 (ip), vehicle: saline, higher = longer survival): 53 % of control | T/C (endpoint: median survival time, dose: 125.0 micrograms/kg/injection, schedule: Q01DX009 (ip), vehicle: saline, higher = longer survival): 88 % of control and 118 % of control | T/C (endpoint: median survival time, dose: 250.0 micrograms/kg/injection, schedule: Q01DX009 (ip), vehicle: saline, higher = longer survival): 93 % of control | T/C (endpoint: median survival time, dose: 500.0 micrograms/kg/injection, schedule: Q01DX009 (ip), vehicle: saline, higher = longer survival): 97 % of control | T/C (endpoint: median tumor weight (est.), dose: 0.12 mg/kg/injection, schedule: Q01DX011 (ip), vehicle: saline, higher = larger tumour): 102 % of control | T/C (endpoint: median tumor weight (est.), dose: 0.18 mg/kg/injection, schedule: Q01DX011 (ip), vehicle: saline, higher = larger tumour): 46 % of control | T/C (endpoint: median tumor weight (est.), dose: 125.0 micrograms/kg/injection, schedule: Q01DX009 (ip), vehicle: saline, higher = larger tumour): 92 % of control | T/C (endpoint: median tumor weight (est.), dose: 250.0 micrograms/kg/injection, schedule: Q01DX009 (ip), vehicle: saline, higher = larger tumour): 93 % of control | T/C (endpoint: median tumor weight (est.), dose: 500.0 micrograms/kg/injection, schedule: Q01DX009 (ip), vehicle: saline, higher = larger tumour): 43 % of control

Nc1ncnc2c(C3OC(CO)C(O)C3O)[nH]nc12 (stereo unspecified)
T/C (endpoint: mean tumor weight, dose: 10.5 mg/kg/injection, schedule: Q01DX011 (ip), vehicle: carboxymethylcellulose (CMC), higher = larger tumour): 66 % of control
